# Results published in patent US8796281B2, “Lighting device having at least one heat sink” (Jinan University, priority 2010, dated 2014).
# “Also recorded” adds a separate entry of the source.
# Key:
# aging accelerated mice = conditions: intraperitoneally injected daily; cited from earlier work
# 24-month-old rats = conditions: cited from earlier work
# [1] = in vivo; cited from earlier work
# PC12 cells = assay: Cytoprotection of PC12 cells against t-BHP-induced damage (MTT); type: cell-based, rats; conditions: t-BHP 200 μM, FIG. 3
# Description: PC12 cells were inoculated in a 96-well plate of strong adsorption with 90 μL per well, cultured for 36 hrs in an incubator set at 37° C. and 5% CO2. After 36 hrs, each of the drugs was added in four concentration gradients. Cultured for half an hour in an incubator set at 37° C. and 5% CO2, replaced with serum-free medium, t-BHP ([…], final concentration of 200 μM) was added in each of the wells except the well of the control. Then the material was placed and cultured in an incubator for 24 hrs. The cells were cultured for 24 hrs, and MTT (15 μL, 5 mg/mL) was added in each of the wells. The material was cultured in an incubator for 4 hrs, and then DMSO ([…]) was added in each of the wells to be further incubated for at least half an hour to ensure the crystals were completely dissolved. The absorbance (A value) was measured by using a micro-plate reader at 570 nm.
# Dopaminergic neurons = assay: Cytoprotection on injuries of dopaminergic neurons induced by MPP+; type: cell-based; conditions: 500 μM, 50 μM and 5 μM, MPP+ 10 μM, FIG. 5
# Description: Dopaminergic neurons were cultured for 5 days, and L-Deprenyl, TMP and TN-2 were added in a concentration gradient of 500 μM, 50 μM and 5 μM respectively. Two hours later, MPP^+(with a final concentration of 10 μM) was added into each of the wells except those of the control.
# [2] = tested on: rats with ischemia caused by MCAo; assay: Protection of rats having cerebral ischemia caused by MCAO (TTC, extent of cerebral infarction); type: in vivo; conditions: 65 mg/kg intravenously 1 hr after ischemia, 2 hrs ischemia, 24 hrs reperfusion, FIG. 4
# Description: Anesthesia was performed on rats (female SD rats, in body weight of 260-300 g) with intraperitoneal injection of 10% hydrated chloral hydrate in a dose of 400 mg/kg or with inhalation of 3.5% halothane. At the entrance of MCAO (Middle Cerebral Artery Occlusion Ischemia) was blocked with a nylon wire to cause cerebral ischemia. After ischemia occurred for 1 hr, the rats were respectively intravenously injected with EDA (63 mg/kg), TBN (80 mg/kg), TN-2 (65 mg/kg), and saline (control group). There were 6 rats in each group. After ischemia occurred for 2 hrs, the nylon wires were removed, and reperfusion was performed for 24 hrs. Brain tissues were taken and the cerebellums were removed. The material was rinsed in PBS solution, and put in a freezer set at −20° C. for a moment, and the brain tissues were cut into slices with a thickness of about 2 mm, and immediately placed in a solution of 0.5% triphenyltetrazolium chloride (TTC). Incubation was performed at 37° C. for 30 minutes. The extent of cerebral infarction was evaluated. […] In FIG. 4, the data were examined by one-tailed t-test; the mark “*” refers to the data in comparison with the control; drug dosage: TBN (80 mg/kg), and Edaravone (63 mg/kg); and each of the drugs were used in equal molarity.
# [3] = 32 mg/kg intraperitoneally daily for 9.5 months
structure (smiles),measurement,setting,value
"CC(C)(C)/[N+]([O-])=C/c1ccccc1 [PBN, Phenyl-tert-Butyl Nitrones]",increase in the lifespan of the mice,aging accelerated mice,33%
same,cognitive ability for older rats,24-month-old rats; [3],enhanced
same,lipid peroxidation reactions in cerebral cortex and globus pallidus,24-month-old rats; [3],diminished
same,rats still alive,24-month-old rats; when the experiment was run for 32 months,7 of the 11
"Cc1nc(C)c(C)nc1C [TMP, Tetramethylpyrazine]",bioavailability,[1],low
Cc1nc(/C=[N+](/[O-])C(C)(C)C)c(C)nc1/C=[N+](/[O-])C(C)(C)C [TN-2],cytoprotection towards the t-BHP-induced cell damage,"PC12 cells; 24 hrs, MTT absorbance at 570 nm",significant effect of cytoprotection; also recorded: significant protective effects
same,intensity of the cytoprotective effect compared with TMP,PC12 cells,significantly higher than that of TMP
same,cytoprotection to the MPP+-induced cell damage,Dopaminergic neurons,significant
same,treatment effects on stroke of the rats (extent of cerebral infarction),[2],significant treatment effects
